Assay results reported in patent US20180290977A1, “KDM4 INHIBITORS” (Albert-Ludwigs-University Freiburg, priority 2017, published 2018).

Assays:
Assay type in all cases: cell-based, human
[1] = tested on: BCSC1 cells; experiment: Anchorage-independent sphere formation assay (methylcellulose); details: erlotinib 1 μM or 10 μM (FIG. 7F)
Procedure: (§1) For the cancer stem-cell spheroid assay in methylcellulose, cells were detached by ACCUTASE solution and counted. 3×10^3 single BCSC1 and 1×10^3 single BCSC2 cells were seeded into individual wells of 96-well ultra-low attachment plates (CORNING, #3474) in serum-free MSC medium containing 1% methylcellulose (Sigma-Aldrich, #M0512).

[2] = tested on: BCSC2 cells; experiment: as above; details: erlotinib 1 μM or 10 μM (FIG. 7G)
Procedure: as §1

[3] = tested on: BCSC1 cells; experiment: BCSC cell proliferation / dose-response assay; details: erlotinib, 10 μM (FIG. 7B)
Procedure: (§2) For dose-response assays, cells were detached by ACCUTASE solution dissociation and counted. […] After incubation at 37° C. for 30 min to solidify the [sequence], 1×10^3 single cells were seeded per 384-well in 40 μL medium. […] Following 96 hr of incubation under normal culture conditions, the cells were washed once with PBS and fixed with ice-cold methanol for at least 15 min at −20° C. After another washing step with PBS, cells were stained with DAPI (Sigma-Aldrich) and read-out with the ScanR microscope-based imaging platform (Olympus Deutschland GmbH, Hamburg, Del.). Total DAPI cell nuclear counts per well were determined.
(§3) For the cell proliferation assays, BCSCs tagged with a stable NLS-mCherry fluorescent signal (nuclear localization peptide) were used for this assay. Cells were detached by ACCUTASE dissociation and counted. Each well of a black 384-well plate (Greiner) was coated with 10 μL of MSC medium containing 2% [sequence]. After incubation at 37° C. for 30 min to solidify the [sequence], 1×10^3 single cells/well were seeded in 40 μL medium. […] Afterwards, the first readout with the ScanR microscope-based imaging platform (Olympus) was started, assessing mCherry-fluorescent cell nuclei in nine sectors of each well under 60% humidity and 5% CO2. This readout was repeated every 24 hr for 7 days. […]

[4] = tested on: BCSC2 cells; experiment: BCSC cell proliferation / dose-response assay; details: erlotinib, 10 μM (FIG. 7C)
Procedure: as §2, §3

C#Cc1cccc(Nc2ncnc3cc(OCCOC)c(OCCOC)cc23)c1 [erlotinib]
3D-colony forming capacity [1]: dramatically reduced
3D-colony forming capacity [2]: dramatically reduced
proliferation of BCSC1 cells [3]: blocked
proliferation of BCSC2 cells [4]: blocked
